Read-outs that look alike come from different tables or passages of the source.
Experiments:
rabbit aortic rings = test: Relaxation of precontracted rabbit aortic rings (isometric tension); format: cell-based; details: for relaxation of aortic rings, cumulative additions: intact rings precontracted with phenylephrine (100 μM), 10 nM to 1 μM, FIG. 2
Description: Briefly, male New Zealand rabbits weighing 1.5 to 2.0 Kg were anesthetized by an intravenous injection of sodium pentobarbital (40 mg/kg) into a marginal ear vein. The descending thoracic aorta was quickly removed and placed in ice-cold Krebs' solution containing the following composition (mM): NaCl, 118; KCl, 4.8; MgSO4, 1.2; CaCl2, 2.5; KH2 PO4, 1.2; NaHCO3, 25; glucose, 11; Na2 EDTA, 0.03. The thoracic aorta was first trimmed free of most adipose and connective tissue. It was then cut into transverse rings by placing it at a right angle across five parallel razor blades mounted at 2.5 mm intervals in a plastic holder and then rolling a large polypropylene pipette tip over it (simultaneously producing four rings of equal size). The aortic rings and other tissues (see the following) used in this study, were mounted on pairs of L-shaped hooks and suspended in Krebs' solution (gassed with 95% 02 /5% CO2, 37° C.) in 20 ml organ chambers unless stated otherwise.
Results are expressed in percentage of relaxation of phenylephrine-induced tone.

rabbit sphincter of Oddi = test: Contractility of isolated rabbit sphincter of Oddi; format: cell-based; details: for effect on ACh-induced contractions: ACh-pretreated (10 μM), cumulative addition, peptides 1 nM-1 μM, GSNO 0.1-100 μM; for inhibition at 100 µM: Oryctolagus cuniculus
Description: The preparation of rabbit sphincters of Oddi (SO) was similar to that described previously (Slivka et al. 1994) with minor modifications. Briefly, the rabbit abdomen was opened at the midline. The gall bladder, bile duct, gastric antrum and contiguous duodenum were isolated, removed en bloc, and transferred to ice cold Krebs' solution at pH 7.4. The duodenum was opened along the antimesenteric border as was the adjacent pylorus and gastric antrum. From the luminal surface, the ampulla of Vater was identified and the SO isolated on ice under an illuminated magnifier by sharp dissection.
The SO were mounted on pairs of the hooks and suspended in organ chambers containing the Krebs' solution at 37° C. Resting tension was adjusted to 1 g, and circular contractions were monitored by the FT03C force transducer and recorded on the model 7 Grass polygraphs. SO were allowed to equilibrate as described above. […] Some experiments were performed by using ACh to intensify SO contractility, and then the effects of VIP, VIPGC-NO, VIPGC and GSNO on SO contractility were tested. After each experimental observation was complete, the SO were washed at least three times with fresh Krebs' solution.

[1] = tested on: cGMP and cAMP content of rabbit aortic rings; test: Cyclic GMP and cyclic AMP content of rabbit aortic rings (enzyme-immunoassay); format: cell-based; details: 1 μM, FIG. 9; for cGMP content of aortic rings: at maximum relaxation
Description: (§3) Frozen tissues were homogenized in ice-cold 6% trichloroacetic acid to give approximately a 10% (w/v) homogenate. The homogenates were centrifuged at 2,000 g for 15 minutes at 4° C. The supernatant fractions were decanted off the pellets and washed four times with 5 volumes of water-saturated ethyl ether, and the aqueous extracts remaining were saved for assay for cyclic GMP and AMP using enzyme-immunoassay kits (Amersham Life Science Inc., Arlington Heights, IL).

[2] = tested on: cGMP and cAMP content of guinea pig tracheal rings; test: Cyclic GMP and cyclic AMP content of guinea pig tracheal rings (enzyme-immunoassay); format: cell-based; details: 100 nM, n=4, FIG. 10; for cGMP content of tracheal rings: at plateau of relaxation
Description: as §3

corpora cavernosa = test: Erectile response (intracavernosal pressure) in vivo in the anesthetized dog
Description: (§1) Male mongrel dogs (20-30 kg) were used as the animal model. Under pentobarbital anesthesia (30 mg/kg) and mechanical respiration, a 20 gauge anglocatheter was placed into the carotid artery for measurement of systemic blood pressure. A ventral incision was made in the penis and the corpora cavernosa were exposed.
(§2) A 19 gauge minicatheter was inserted deep into the cavernosal tissue, on each corpus, for pressure measurement and delivery of either VIP, VIP-Gly-Cys-NO, VIP-Gly-Cys-NH2 or papaverine. […] Drugs were delivered intracavernosally in solution, 0.5 ml volume, at variable syringe concentrations, starting at 10^-7 M and progressively increasing the dose up to, in some instances, 10^-4 M. In most experiments, at the end, papaverine 80 mM was administered intracavernosally in order to compare this response to those elicited by VIP or its analogs. At all times systemic blood pressure was monitored, for comparison with intracavernosal pressure.

guinea-pig trachea [3] = details: for time for relaxation to reach a plateau: 100 nM; for effect of pretreatment with 100 nM propanol on the induced relaxation: cumulative additions, dose range 10-320 nM; for IC50: read-out: IC50 of relaxation of tracheal rings, precontracted with 10 μM methacholine, FIG. 4
Description: (§4) Male Hartley guinea pigs (300-400 g) were anesthetized by use of intraperitoneal injection of pentobarbital sodium (40 mg/kg) to achieve a deep plane of anesthesia. The tracheas were dissected out, transferred to cold Krebs' solution. Tracheas were then dissected free from surrounding fat and connective tissue and cut transversely between the segments of cartilage, so as to give tracheal rings about 2 mm thick. The rings were suspended between stainless-steel hooks in the 20 ml organ baths containing the above-mentioned Krebs' solution at 37° C. The hooks were connected to the FT03C transducers. Rings were equilibrated at a basal tension of 1 g as described above and then primed twice with methacholine (100 nM). The rings were rinsed throughout after each priming exposure. Tracheal rings were not used if they could not sustain at least 1 g tension when exposed to 100 nM methacholine. The surface of organ baths was treated with 1N HCl to minimize contamination and allowed to dry in room air before Krebs' solution were added. For relaxation studies, methacholine (100 nM) was used to contract the tracheal rings and results are expressed in percentage of relaxation of methacholine-induced tone.

[4] = tested on: rat gastric fundus strips; test: Contraction of rat gastric fundus strips; format: cell-based; details: for relative potency of inhibition of contraction amplitude: 5HT (10 μM) present, FIG. 8
Description: Male and female Sprague-Dawley rats weighing 200-300 g were anesthetized with 40 mg/kg sodium pentobarbital given intraperitoneally. After deep anesthesia was obtained, exsanguination was accomplished by severing both the jugular vein and common carotid artery. The abdomen was opened at the midline and the stomach was removed, and transferred to the ice cold oxygenated Krebs' solution at pH 7.4. The stomach was dissected out and the pink pyloric end cut away from the grey fundal end. The fundal end was split open so as to form a sheet, the contents were washed away. Longitudinal muscle strips (3×20 mm) of the gastric fundus were prepared as described by Vane (Vane, Br. J. Pharmac. Chemother., 12:344, 1957). The strips were mounted under a 1-g resting tension between two parallel platinum electrodes placed inside the organ baths containing 20-ml of the gassed Krebs' solution. The Krebs' solution also contained atropine (1 μM) and guanethidine (4 μM) to block cholinergic and adrenergic involvement in response to field stimulation of intramural nerves and 5-hydroxytryptamine (5-HT, 5-10 μM) to raise the tone of the smooth muscle. In some experiments, indomethacin (10 μM) was present in Krebs' to avoid the influence of endogenous prostaglandins. Tissues were allowed to equilibrate for 1 h with changes of Krebs' solution every 10 minutes.
After the equilibration period, relaxations of smooth muscle were elicited by VIP, VIPGC, VIPGC-NO, isoproterenol and GSNO. In some experiments, the strips were incubated for 10 minutes with N^G -monomethyl L-arginine (L-NMMA).

[5] = dog, in vivo
Description: as §1, §2

guinea-pig trachea [6] = test: tissue or blood; details: Cavia porcellus, read-out: IC50 of relaxation of tracheal rings
Description: as §4

Structure (SMILES): CC[C@H](C)[C@H](NC(=O)[C@H](CO)NC(=O)[C@H](CC(N)=O)NC(=O)[C@H](CC(C)C)NC(=O)[C@H](Cc1ccc(O)cc1)NC(=O)[C@H](CCCCN)NC(=O)[C@H](CCCCN)NC(=O)[C@@H](NC(=O)[C@H](C)NC(=O)[C@H](CCSC)NC(=O)[C@H](CCC(N)=O)NC(=O)[C@H](CCCCN)NC(=O)[C@H](CCCNC(=N)N)NC(=O)[C@H](CC(C)C)NC(=O)[C@H](CCCNC(=N)N)NC(=O)[C@@H](NC(=O)[C@H](Cc1ccc(O)cc1)NC(=O)[C@H](CC(N)=O)NC(=O)[C@H](CC(=O)O)NC(=O)[C@@H](NC(=O)[C@H](Cc1ccccc1)NC(=O)[C@@H](NC(=O)[C@H](C)NC(=O)[C@H](CC(=O)O)NC(=O)[C@H](CO)NC(=O)[C@@H](N)Cc1c[nH]cn1)C(C)C)[C@@H](C)O)[C@@H](C)O)C(C)C)C(=O)N[C@@H](CC(C)C)C(=O)N[C@@H](CC(N)=O)C(N)=O [VIP, vasoactive intestinal peptide]
- relaxation of aortic rings, cumulative additions (rabbit aortic rings): certain degree of relaxation only at 1 μM
- relaxation of phenylephrine-precontracted aortic rings (rabbit aortic rings; single doses (1 μM), FIG. 3): 19±4%
- persistence of effect (rabbit sphincter of Oddi): at least 90 minutes
- time to observed effect after addition to organ chambers (rabbit sphincter of Oddi): ≤ 2 min
- inhibition of contraction frequency (rabbit sphincter of Oddi; 1 μM): 94±16%
- inhibition of ACh-enhanced phasic contractions (rabbit sphincter of Oddi; 1 μM, ACh 10 μM): 93±7%
- effect on ACh-induced contractions (rabbit sphincter of Oddi): gradually attenuated
- inhibition of basic contraction frequency and amplitude (rabbit sphincter of Oddi; cumulative addition 1 nM-1 μM, FIG. 5, 6): inhibited both basic contraction frequency and amplitude dose-dependently
- irregular and incomplete contractions noted during incubation (rabbit sphincter of Oddi; single dose 0.1 μM, 30 minutes, n=5, FIG. 7): 40±11
- cGMP content of aortic rings [1]: less than that of VIPGC-NO or GSNO
- cAMP content of aortic rings [1]: no significant increase in cAMP content
- cGMP content of tracheal rings [2]: significant increase in the content of cGMP
- cAMP content of tracheal rings [2]: no concomitant increases in the cAMP level
- erectile response (corpora cavernosa; 10^-5 M, FIG. 16): partial and short erectile response
- erectile response (corpora cavernosa; intracavernosal 10^-5 M, FIG. 13): capable of inducing sustained penile erection
- time for relaxation to reach a plateau (guinea-pig trachea [3]): about 20 minutes
- effect of pretreatment with 100 nM propanol on the induced relaxation (guinea-pig trachea [3]): did not antagonize

Structure (SMILES): N[C@@H](CCC(=O)N[C@@H](CSN=O)C(=O)NCC(=O)O)C(=O)O [GSNO, S-nitrosoglutathione]
- relaxation of aortic rings, cumulative additions (rabbit aortic rings): also observed in the rings exposed to GSNO
- effect on ACh-induced contractions (rabbit sphincter of Oddi): gradually attenuated
- inhibition at 100 µM (rabbit sphincter of Oddi; ACh 10 μM, read-out: inhibition of ACh-enhanced phasic contractions): 89 ± 5%
- inhibition at 100 µM (rabbit sphincter of Oddi; read-out: inhibition of basic contractility of sphincter of Oddi): 91 ± 9%
- relative potency of inhibition of contraction amplitude [4]: two least potent inhibitors
- cGMP content of aortic rings [1]: significant increase in cGMP concentration
- cAMP content of aortic rings [1]: no significant increase in cAMP content

Structure (SMILES): NCCc1c[nH]c2ccc(O)cc12 [5HT, 5-hydroxytryptamine]
- effect on contractions of the strips ([4]; 10 μM): significant increase in contractions

Structure (SMILES): CC[C@H](C)[C@H](NC(=O)[C@H](CO)NC(=O)[C@H](CC(N)=O)NC(=O)[C@H](CC(C)C)NC(=O)[C@H](Cc1ccc(O)cc1)NC(=O)[C@H](CCCCN)NC(=O)[C@H](CCCCN)NC(=O)[C@@H](NC(=O)[C@H](C)NC(=O)[C@H](CCSC)NC(=O)[C@H](CCC(N)=O)NC(=O)[C@H](CCCCN)NC(=O)[C@H](CCCNC(=N)N)NC(=O)[C@H](CC(C)C)NC(=O)[C@H](CCCNC(=N)N)NC(=O)[C@@H](NC(=O)[C@H](Cc1ccc(O)cc1)NC(=O)[C@H](CC(N)=O)NC(=O)[C@H](CC(=O)O)NC(=O)[C@@H](NC(=O)[C@H](Cc1ccccc1)NC(=O)[C@@H](NC(=O)[C@H](C)NC(=O)[C@H](CC(=O)O)NC(=O)[C@H](CO)NC(=O)[C@@H](N)Cc1c[nH]cn1)C(C)C)[C@@H](C)O)[C@@H](C)O)C(C)C)C(=O)N[C@@H](CC(C)C)C(=O)N[C@@H](CC(N)=O)C(=O)NCC(=O)N[C@@H](CS)C(N)=O [VIPGC, VIP-Gly-Cys-NH2]
- diastolic blood pressure (DBP) [5]: 120 mm Hg
- IC50 (guinea-pig trachea [3]): 59 ± 9 nM

Structure (SMILES): CC[C@H](C)[C@H](NC(=O)[C@H](CO)NC(=O)[C@H](CC(N)=O)NC(=O)[C@H](CC(C)C)NC(=O)[C@H](Cc1ccc(O)cc1)NC(=O)[C@H](CCCCN)NC(=O)[C@H](CCCCN)NC(=O)[C@@H](NC(=O)[C@H](C)NC(=O)[C@H](CCSC)NC(=O)[C@H](CCC(N)=O)NC(=O)[C@H](CCCCN)NC(=O)[C@H](CCCNC(=N)N)NC(=O)[C@H](CC(C)C)NC(=O)[C@H](CCCNC(=N)N)NC(=O)[C@@H](NC(=O)[C@H](Cc1ccc(O)cc1)NC(=O)[C@H](CC(N)=O)NC(=O)[C@H](CC(=O)O)NC(=O)[C@@H](NC(=O)[C@H](Cc1ccccc1)NC(=O)[C@@H](NC(=O)[C@H](C)NC(=O)[C@H](CC(=O)O)NC(=O)[C@H](CO)NC(=O)[C@@H](N)Cc1c[nH]cn1)C(C)C)[C@@H](C)O)[C@@H](C)O)C(C)C)C(=O)N[C@@H](CC(C)C)C(=O)N[C@@H](CC(N)=O)C(=O)NCC(=O)N[C@@H](CSN=O)C(N)=O [VIPGC-NO, VIP-Gly-Cys-NO]
- diastolic blood pressure (DBP) [5]: 120 mm Hg
- IC50 (guinea-pig trachea [3]): 32 ± 6 nM

Structure (SMILES): CC(=O)OCC[N+](C)(C)C [ACh, acetylcholine]
- acceleration in phasic contractions (rabbit sphincter of Oddi; 10 μM, n=12): 69±15%
- elevations in tonic pressure (rabbit sphincter of Oddi; 10 μM, n=12): 73±12%

Structure (SMILES): CC(C)NCC(O)c1ccc(O)c(O)c1 (stereo not shown) [isoproterenol]
- relative potency of inhibition of contraction amplitude [4]: two least potent inhibitors
- cGMP content of tracheal rings [2]: no appreciable changes in the cGMP content
- cAMP content of tracheal rings [2]: significant increase in the cAMP level
- time for relaxation to reach a plateau (guinea-pig trachea [3]): about 5 minutes
- effect of pretreatment with 100 nM propanol on the induced relaxation (guinea-pig trachea [3]): blocked
- IC50 (guinea-pig trachea [6]): 47 ± 3 nM

Reference: patent US5612314A, “Nitrosylated neuropeptides” (Brigham & Women's Hospital, priority 1995, dated 1997)
